Test system: angioedema in CSU patients
Test: Phase 2 CSU study: angioedema activity score over 7 days (AAS7)
Format: in vivo, human
Settings: 400 mg BID; for AAS7 = 0, OR (95% CI) for rilzabrutinib vs. placebo / AAS7 = 0, RRD (%) for rilzabrutinib vs. placebo (95% CI) / AAS7 Post-baseline Mean (SD) / Participants with AAS7 = 0, Responder n (%) / AAS7 % Change difference for rilzabrutinib vs. placebo LS Mean (95% CI) / AAS7 % Change from baseline LS Mean (SE) / AAS7 Change difference for rilzabrutinib vs. placebo LS Mean (95% CI) / AAS7 Change from baseline LS Mean (SE) / AAS7 = 0, Non-responder n (%): angioedema at baseline; for Non-responder n (%), AAS7 = 0 / OR (95% CI) for rilzabrutinib vs. placebo, AAS7 = 0 / Responder n (%), AAS7 = 0 / RRD (%) for rilzabrutinib vs. placebo (95% CI), AAS7 = 0: outlier removed
Text: The study comprises a 12 week, randomized, double-blind, placebo-controlled, multi-center, dose-ranging efficacy and safety phase, followed by a 40 week open label extension (OLE) phase (see FIG. 1). The study consists of three phases and an optional OLE phase. […] The weekly angioedema activity score (AAS7) was proposed as a tertiary endpoint. […] Patients were to complete the AAS using the e-diary. The e-diary was to be used once daily on the same time of each day recording of participant's answers to the angioedema activity score over 7 days (AAS7) questionnaire.

## CC(C)(C=C(C#N)C(=O)N1CCC[C@@H](n2nc(-c3ccc(Oc4ccccc4)cc3F)c3c(N)ncnc32)C1)N1CCN(C2COC2)CC1 [rilzabrutinib, (R)-2-[3-[4-amino-3-(2-fluoro-4-phenoxy-phenyl)pyrazolo[3,4-d]pyrimidin-1-yl]piperidine-1-carbonyl]-4-methyl-4-[4-(oxetan-3-yl)piperazin-1-yl]pent-2-enenitrile]
Week 4, omalizumab-naïve
  AAS7 = 0, OR (95% CI) for rilzabrutinib vs. placebo: 2.118
  AAS7 = 0, RRD (%) for rilzabrutinib vs. placebo (95% CI): 16.8 %
  AAS7 Post-baseline Mean (SD): 14.79 (17.89)
  Participants with AAS7 = 0, Responder n (%): 11 (42.3) n (%)
Week 5, ITT
  AAS7 % Change difference for rilzabrutinib vs. placebo LS Mean (95% CI): −14.36 (−40.13, 11.41) %
  AAS7 % Change from baseline LS Mean (SE): −68.19 (10.08) %
  AAS7 Change difference for rilzabrutinib vs. placebo LS Mean (95% CI): −6.53 (−17.51, 4.44)
  AAS7 Change from baseline LS Mean (SE): −36.13 (4.29)
  AAS7 Post-baseline Mean (SD): 12.95 (20.09)
Week 5, omalizumab-naïve
  Non-responder n (%), AAS7 = 0: 14 (40.0) n (%)
  OR (95% CI) for rilzabrutinib vs. placebo, AAS7 = 0: 1.574
  Responder n (%), AAS7 = 0: 21 (60.0) n (%)
  AAS7 % Change difference for rilzabrutinib vs. placebo LS Mean (95% CI): −10.97 (−38.45, 16.50) %
  AAS7 = 0, Non-responder n (%): 13 (50.0) n (%)
  AAS7 = 0, OR (95% CI) for rilzabrutinib vs. placebo: 2.390
  AAS7 = 0, RRD (%) for rilzabrutinib vs. placebo (95% CI): 22.3 %
  AAS7 Post-baseline Mean (SD): 13.98 (20.55)
  Participants with AAS7 = 0, Responder n (%): 13 (50.0) n (%)
Week 6, ITT
  AAS7 % Change difference for rilzabrutinib vs. placebo LS Mean (95% CI): −23.55 (−50.40, 3.31) %
  AAS7 Change difference for rilzabrutinib vs. placebo LS Mean (95% CI): −10.15 (−21.84, 1.54)
  AAS7 Change from baseline LS Mean (SE): −36.76 (4.50)
  AAS7 Post-baseline Mean (SD): 12.28 (18.70)
Week 6, omalizumab-naïve
  Non-responder n (%), AAS7 = 0: 17 (48.6) n (%)
  OR (95% CI) for rilzabrutinib vs. placebo, AAS7 = 0: 1.118
  RRD (%) for rilzabrutinib vs. placebo (95% CI), AAS7 = 0: 2.9 %
  Responder n (%), AAS7 = 0: 18 (51.4) n (%)
  AAS7 % Change difference for rilzabrutinib vs. placebo LS Mean (95% CI): −20.62 (−49.95, 8.72) %
  AAS7 = 0, Non-responder n (%): 15 (57.7) n (%)
  AAS7 = 0, OR (95% CI) for rilzabrutinib vs. placebo: 1.828
  AAS7 = 0, RRD (%) for rilzabrutinib vs. placebo (95% CI): 13.6 %
  AAS7 Post-baseline Mean (SD): 13.26 (19.12)
  Participants with AAS7 = 0, Responder n (%): 11 (42.3) n (%)
Week 7, ITT
  AAS7 % Change difference for rilzabrutinib vs. placebo LS Mean (95% CI): −25.42 (−54.97, 4.13) %
  AAS7 % Change from baseline LS Mean (SE): −71.37 (11.45) %
  AAS7 Change from baseline LS Mean (SE): −37.72 (4.37)
  AAS7 Post-baseline Mean (SD): 13.39 (19.19)
Week 7, omalizumab-naïve
  Non-responder n (%), AAS7 = 0: 18 (51.4) n (%)
  OR (95% CI) for rilzabrutinib vs. placebo, AAS7 = 0: 1.022
  RRD (%) for rilzabrutinib vs. placebo (95% CI), AAS7 = 0: 0.6 %
  Responder n (%), AAS7 = 0: 17 (48.6) n (%)
  AAS7 % Change difference for rilzabrutinib vs. placebo LS Mean (95% CI): −23.13 (−55.14, 8.88) %
  AAS7 % Change from baseline LS Mean (SE): −70.13 (12.07) %
  AAS7 = 0, Non-responder n (%): 15 (57.7) n (%)
  AAS7 = 0, OR (95% CI) for rilzabrutinib vs. placebo: 1.515
  AAS7 Post-baseline Mean (SD): 14.38 (19.63)
  Participants with AAS7 = 0, Responder n (%): 11 (42.3) n (%)
Week 8, ITT
  AAS7 % Change difference for rilzabrutinib vs. placebo LS Mean (95% CI): −29.34 (−59.45, 0.76) %
  AAS7 % Change from baseline LS Mean (SE): −81.40 (11.62) %
  AAS7 Change difference for rilzabrutinib vs. placebo LS Mean (95% CI): −13.31 (−24.25, −2.37)
  AAS7 Change from baseline LS Mean (SE): −41.63 (4.21)
  AAS7 Post-baseline Mean (SD): 9.20 (16.24)
Week 8, omalizumab-naïve
  Non-responder n (%), AAS7 = 0: 14 (40.0) n (%)
  OR (95% CI) for rilzabrutinib vs. placebo, AAS7 = 0: 1.991
  RRD (%) for rilzabrutinib vs. placebo (95% CI), AAS7 = 0: 17.0 %
  Responder n (%), AAS7 = 0: 21 (60.0) n (%)
  AAS7 % Change difference for rilzabrutinib vs. placebo LS Mean (95% CI): −30.39 (−63.25, 2.47) %
  AAS7 % Change from baseline LS Mean (SE): −80.38 (12.36) %
  AAS7 = 0, Non-responder n (%): 13 (50.0) n (%)
  AAS7 = 0, OR (95% CI) for rilzabrutinib vs. placebo: 2.829
